Like-named read-outs stand apart in the source and are kept apart here.

A word on the DC50: it is the concentration giving 50% degradation. The IC50 is the point on the concentration scale where inhibition reaches its midpoint.

The target in one assay is IRAK4 (Homo sapiens (Human), UniProt Q9NWZ3). As to the kind of experiment: IRAK4 MSD degradation in OCI-LY10. In kind it is cell-based. In a few lines: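 Remaining IRAK4 quantified by electrochemiluminescent MSD sandwich assay with two anti-IRAK4 antibodies. Compounds were dosed as 8 concentrations in 1:3 steps from a 1 to 10 μM final top on OCI-LY10 cells, incubated 4 to 24 h at 37° C. under 5% CO2. DC50 fitted with a three-parameter logistic curve.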
IRAK4, sequence (Q9NWZ3 whole entry): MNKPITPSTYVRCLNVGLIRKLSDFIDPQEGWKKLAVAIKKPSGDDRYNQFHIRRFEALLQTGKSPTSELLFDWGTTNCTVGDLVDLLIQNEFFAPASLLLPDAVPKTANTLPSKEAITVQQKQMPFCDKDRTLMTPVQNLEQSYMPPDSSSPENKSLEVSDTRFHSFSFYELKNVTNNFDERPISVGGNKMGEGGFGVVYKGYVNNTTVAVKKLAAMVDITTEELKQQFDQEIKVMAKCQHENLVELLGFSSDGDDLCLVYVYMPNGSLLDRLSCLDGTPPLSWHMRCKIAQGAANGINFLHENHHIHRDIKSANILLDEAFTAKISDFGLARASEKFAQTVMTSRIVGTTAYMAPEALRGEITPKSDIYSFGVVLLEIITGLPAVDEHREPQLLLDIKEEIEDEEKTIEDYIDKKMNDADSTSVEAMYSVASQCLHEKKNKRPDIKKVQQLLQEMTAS

The test system of a further assay is OCI-LY10. As to the kind of experiment: CTG Cell Viability Assay - OCI-LY10. In kind it is cell-based, human. The settings on record: Homo sapiens, OCI-Ly10, 96 h, OCI-LY10, 4 days; read-out: CTG Cell Viability Assay - OCI-LY10: Average external-IC50. The procedure, abridged:
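Viability read by CellTiter-Glo luminescence after 4 days at 37° C under 5% CO2 with compound (top 10 μM final, 1:3 steps, 9 doses, DMSO 0.2%). Three-parameter logistic fit gave IC50.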

The mark [1] stands for this setting: OCI-LY10, 4 hrs, MSD, read-out: IRAK4 MSD degradation in OCI-LY10 at 4 hrs: Average external-Abs DC50.
Where [2] appears, read: OCI-LY10, 24 hrs, MSD, read-out: IRAK4 MSD degradation in OCI-LY10 at 24 hrs: Average external-Abs DC50.
Where [3] appears, read: OCI-LY10, 4 hrs, read-out: IRAK4 MSD degradation in OCI-LY10 at 4 hrs: DC50.

With `Cn1c(=O)n(C2CCC(=O)NC2=O)c2cccc(CCCOCCCOC3CCN(C4CCC(Nc5ncnc6ccc(C#N)cc56)CC4)CC3)c21` (stereo not shown) [I-271], the DC50 on IRAK4 (setting [1]) and on IRAK4 (setting [2]) was above 1000 nM each time. Besides, in the assay on OCI-LY10, the IC50 was above 1000 nM.
As to `O=C1CCC(N2C(=O)c3cccc(NCC4CC5(C4)CN(C[C@H]4CC[C@H](n6cc(NC(=O)c7cnn8ccc(N9C[C@H]%10C[C@@H]9CO%10)nc78)c(C(F)F)n6)CC4)C5)c3C2=O)C(=O)N1` (stereo partly shown) [I-461], at IRAK4 (setting [3]), the DC50 lay in the range of 100 to 1000 nM. Besides, in the assay with OCI-LY10, the IC50 is below 50 nM.
For `CN1C(=O)C(C2CCC(=O)NC2=O)c2cccc(CCCOC3CCN(C[C@H]4CC[C@H](n5cc(NC(=O)c6cnn7ccc(N8CC[C@H](O)C8)nc67)c(C(F)F)n5)CC4)CC3)c21` (stereo partly shown) [I-282], at IRAK4 (setting [1]), the DC50 was below 10 nM. For the same compound, in the assay on OCI-LY10, the IC50 is above 1000 nM.
For `CN(C[C@H]1CC[C@H](C2N=C(NC(=O)c3cnn4ccc(N5CCOCC5)nc34)C(C(F)F)=N2)CC1)C1CCC(CNc2cccc3c2C(=O)N(C2CCC(=O)NC2=O)C3=O)CC1` (stereo partly shown) [I-459], the DC50 lay in the range of 100 to 1000 nM on IRAK4 (setting [3]) and 10 to 100 nM on IRAK4 (OCI-LY10, 24 hrs, read-out: IRAK4 MSD degradation in OCI-LY10 at 24 hrs: DC50). Also, in the assay with OCI-LY10, the IC50 was below 50 nM.
Consider `Cn1c(=O)n(C2CCC(=O)NC2=O)c2cccc(CCCOC3CCN(C[C@H]4CC[C@H](n5cc(NC(=O)c6cnn7ccc(N[C@@H]8CCCC(F)(F)[C@@H]8N)nc67)c(C(F)F)n5)CC4)CC3)c21` (stereo partly shown) [I-300], for which, on IRAK4 (setting [1]), the DC50 fell in the range of 100 to 1000 nM. Further, the IC50 in the assay on OCI-LY10 was 500 to 1000 nM.
`O=C1CCC(N2C(=O)c3cccc(NCCCCOC4CCN(C[C@H]5CC[C@H](n6cc(NC(=O)c7coc(-c8ccnc(NCC9CC9)c8)n7)c(C(F)F)n6)CC5)CC4)c3C2=O)C(=O)N1` (stereo partly shown) [I-170]: on IRAK4 (setting [1]), the DC50 lay within 10 to 100 nM. In addition, the IC50 in the assay on OCI-LY10 is below 50 nM.
For `Cn1c(=O)n(C2CCC(=O)NC2=O)c2cccc(CCCOC3CCN(C(=O)[C@H]4CC[C@H](n5cc(NC(=O)c6cnn7ccc(N8CCNCC8)nc67)c(C(F)F)n5)CC4)CC3)c21` (stereo partly shown) [I-136], in that order: below 10 nM and above 1000 nM.
Turning to `Cn1c(=O)n(C2CCC(=O)NC2=O)c2cccc(CN3CCC(CN4CCC(n5cc(NC(=O)c6cnn7ccc(N[C@@H]8CCCC[C@@H]8O)nc67)c(C(F)F)n5)CC4)CC3)c21` (stereo partly shown) [I-150], the DC50 at IRAK4 (setting [1]) was in the range of 10 to 100 nM. Further, in the assay with OCI-LY10, the IC50 is below 50 nM.
Take `Cn1c(=O)n(C2CCC(=O)NC2=O)c2ccc(CN3CCN(C[C@H]4CC[C@H](n5cc(NC(=O)c6coc(-c7ccnc(NCC8CC8)c7)n6)c(C(F)F)n5)CC4)CC3)cc21` (stereo partly shown) [I-243]: the DC50 at IRAK4 (setting [1]) is below 10 nM. In the assay with OCI-LY10, the IC50 was above 1000 nM.
On to `Cc1ncsc1-c1ccc(CNC(=O)[C@@H]2C[C@@H](O)CN2C(=O)[C@@H](NC(=O)COCCOCCOCC(=O)N2CCN([C@H]3CC[C@H](Nc4ncnc5cc(CC#N)ccc45)CC3)CC2)C(C)(C)C)cc1` [I-50], for which, at IRAK4 (setting [1]), the DC50 is above 1000 nM. The IC50 with OCI-LY10 is above 1000 nM.
With `CN(CCOCCNCc1ccc2c(c1)n(C)c(=O)n2C1CCC(=O)NC1=O)C[C@H]1CC[C@H](n2cc(NC(=O)c3coc(-c4ccnc(NCC5CC5)c4)n3)c(C(F)F)n2)CC1` (stereo partly shown) [I-107], the DC50 at IRAK4 (setting [1]) was below 10 nM. For the same compound, in the assay with OCI-LY10, the IC50 is above 1000 nM.
`O=C1CCC(N2C(=O)c3cccc(NCCCOC[C@@H]4CN(C[C@H]5CC[C@H](n6cc(NC(=O)c7cnn8ccc(N9C[C@H]%10C[C@@H]9CO%10)nc78)c(C(F)F)n6)CC5)CCO4)c3C2=O)C(=O)N1` (stereo partly shown) [I-352]: the DC50 was above 1000 nM on IRAK4 (setting [1]) and 10 to 100 nM at IRAK4 (setting [2]). Also, the IC50 in the assay on OCI-LY10 is 500 to 1000 nM.
Turning to `CN1C(=O)C(C2CCC(=O)NC2=O)c2cccc(CCCOC3CCN(C[C@H]4CC[C@H](n5cc(NC(=O)c6cnn7ccc(N8CC(O)C8)nc67)c(C(F)F)n5)CC4)CC3)c21` (stereo partly shown) [I-284], the DC50 on IRAK4 (setting [1]) was below 10 nM. The IC50 in the assay on OCI-LY10 was above 1000 nM.
For the compound `CN(CCC1CCN(c2cccc3c2C(=O)N(C2CCC(=O)NC2=O)C3=O)CC1)C[C@H]1CC[C@H](n2cc(NC(=O)C3CNN4C=CC(N5CCOCC5)=NC34)c(C(F)F)n2)CC1` (stereo partly shown) [I-223], the DC50 at IRAK4 (setting [1]) lay within 10 to 100 nM. In the assay with OCI-LY10, the IC50 is above 1000 nM.

(Values after patent US11352350B2, “IRAK degraders and uses thereof” (Kymera Therapeutics, Inc., priority 2018, dated 2022).)
